# From patent EP0544958A1, “Cephalosporin compounds and processes for preparing the same” (TANABE SEIYAKU CO., LTD., priority 1991, dated 1993)
# Counter-ions that a name gives are not always drawn.
# Legend:
# [1] = system: Citrobacter freundii GN346; test: antimicrobial activity against β-lactamase-producing bacteria compared with ceftazidime; format: cell-based; conditions: relative to ceftazidime
# [2] = system: Staphylococcus aureus 209P JC-1; test: antimicrobial activity compared with ceftazidime; format: cell-based; conditions: relative to ceftazidime
# [3] = system: Staphylococcus epidermidis Kawamura; test: antimicrobial activity compared with ceftazidime; format: cell-based; conditions: relative to ceftazidime
# mice = test: acute toxicity by intravenous administration; format: in vivo; conditions: dose of 1 g/kg, five mice, within five days after administration
# Excerpt: Moreover, the desired compounds [I] or pharmaceutically acceptable salts thereof have high absorbability in the living tissue, and the treatment effects thereof last for a long time so that the compounds [I] of the present invention show an excellent defense effect in infectious diseases caused by various microorganisms including Staphylococcus aureus and Pseudomonas aeruginosa. In addition, the desired compounds [I] of the present invention and pharmaceutically acceptable salts thereof have low toxicity and show high safety as medicaments.
# [4] = system: clinical isolates of MRSA; test: antibacterial activity (90 % inhibitory concentration) against clinical isolates; format: cell-based, methicillin resistant Staphylococcus aureus (MRSA); conditions: relative to ceftazidime
Structure (SMILES),"antimicrobial activity, times stronger than ceftazidime [1]","antimicrobial activity, times stronger as compared with ceftazidime [2]","antimicrobial activity, times stronger as compared with ceftazidime [3]",acute toxicity (mice that died) (mice),"antibacterial activity (90 % inhibitory concentration), times superior to that of ceftazidime [4]"
"Nc1nc(/C(=N/OC(C(=O)O)c2ccc(O)c3[nH]c(=O)ccc23)C(=O)N[C@@H]2C(=O)N3C(C(=O)[O-])=C(C[n+]4cccc5ccccc54)CS[C@H]23)cs1 (stereo partly drawn) [Example 3, 7β-{(Z)-2-(2-aminothiazol-4-yl)-2-[(8-hydroxy-2-oxo-1H-quinolin-5-yl)(caboxy)methyloxyimino]acetamido}-3-(1-quinoliniomethyl)-3-cephem-4-carboxylic acid sodium salt]",more than 4 times,more than 32 times,–,–,–
"Nc1nc(/C(=N/OC(C(=O)O)c2ccc(O)c3[nH]c(=O)ccc23)C(=O)N[C@@H]2C(=O)N3C(C(=O)[O-])=C(C[n+]4ccccc4)CS[C@H]23)cs1 (stereo partly drawn) [Example 4, 7β-{(Z)-2-(2-aminothiazol-4-yl)-2-[(8-hydroxy-2-oxo-1H-quinolin-5-yl)(carboxy)methyloxyimino]acetamido}-3-(1-pyridiniomethyl)-3-cephem-4-carboxylic acid sodium salt]",more than 4 times,–,more than 16 times,–,–
"Cc1c(N)ccc[n+]1CC1=C(C(=O)[O-])N2C(=O)[C@@H](NC(=O)/C(=N\OC(C(=O)O)c3ccc(O)c4[nH]c(=O)ccc34)c3csc(N)n3)[C@H]2SC1 (stereo partly drawn) [Example 27, 7β-{(Z)-2-(2-aminothiazol-4-yl)-2-[(8-hydroxy-2-oxo-1H-quinolin-5-yl)(carboxy)methyloxyimino]acetamido}-3-(3 amino-2-methyl-1-pyridiniomethyl)-3-cephem-4-carboxylic acid sodium salt]",–,–,more than 16 times,none of the five mice,about 16 times
